The assay has as its target T1, TXA2 synthetase (Homo sapiens, UniProt P24557).
T1 construct: human platelet microsomes (HPM); from tissue; host or cells: human platelet microsomes
T1 sequence (P24557 1-533): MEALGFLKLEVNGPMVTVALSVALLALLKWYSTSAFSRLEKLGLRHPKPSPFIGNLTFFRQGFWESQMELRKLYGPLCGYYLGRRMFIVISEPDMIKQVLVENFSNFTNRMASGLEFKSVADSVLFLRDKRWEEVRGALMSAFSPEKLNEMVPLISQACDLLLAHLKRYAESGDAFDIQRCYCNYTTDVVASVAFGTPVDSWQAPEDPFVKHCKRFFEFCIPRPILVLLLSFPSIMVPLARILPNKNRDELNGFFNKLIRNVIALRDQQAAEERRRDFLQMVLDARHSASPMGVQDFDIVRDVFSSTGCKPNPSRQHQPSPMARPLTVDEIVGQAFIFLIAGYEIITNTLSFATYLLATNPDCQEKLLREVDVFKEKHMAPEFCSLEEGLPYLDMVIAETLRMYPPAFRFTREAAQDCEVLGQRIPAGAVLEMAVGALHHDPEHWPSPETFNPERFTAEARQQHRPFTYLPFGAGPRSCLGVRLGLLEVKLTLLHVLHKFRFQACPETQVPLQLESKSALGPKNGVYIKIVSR
The assay can be described thus: TXA2 inhibition test: TXA2 generated from PGH2 with human platelet microsomes, response of superfused rabbit aortic strips. It counts as biochemical. As for the experimental part: The compounds of the present invention were tested for TXA2 inhibition as follows:
Rabbit aortic strips were superfused in series with Krebs solution. Thromboxane A2 (TXA2) was generated by mixing prostaglandin H2 (PGH2) with human platelet microsomes (HPM).
Potential inhibitors were tested by comparing the response of the rabbit aorta to the amount of TXA2 produced by mixing PGH2 and HPM without the test compound in the reaction medium and then the amount of TXA2 produced when the test compound was added to the HPM 5 minutes before the HPM was mixed with PGH2. […] For a discussion of TXA2 synthetase inhibition testing see, e.g., R. Gorman, supra.

This note sets out measurements from US4430502A, “Pyridinyl substituted benzimidazoles and quinoxalines” (The Upjohn Company, priority 1982, dated 1984).

On to `c1cncc(Cc2ccc3nc[nH]c3c2)c1` [Example 3, 5-(3-Pyridinylmethyl)benzimidazole], for which the “effectiveness in inhibiting TXA2 formation” value (compared with the other compounds tested in this test system) is given as “most effective”. For the same molecule, the IC50 (test compound added to human platelet microsomes 5 minutes before mixing with PGH2, rabbit aorta response, read-out: approximate ED50 for inhibiting TXA2 formation (converted)) is ~478 nM.
